Test results taken from patent US20130225694A1, “COMPOSITIONS AND METHODS OF INHIBITING RETINAL DEGENERATION” (Oklahoma Medical Research Foundation, priority 2012, published 2013).

Experiments:
[1] = tested on: rhodopsin; experiment: Rhodopsin regeneration after topical eye drops in mice; type: in vivo, Balb/c mice; settings: for rhodopsin recovered in 1 h in the dark: 10% PBN eye drops, DA control is 100%
Procedure: Panel A: Application scheme and harvesting of the eye. 3 h group received 2 applications and 6 h group received 3 applications. Panel B: Rhodopsin content was measured as pmole/eye. In 1 h in the dark, untreated eyes (NT-LA 1 h DA, no treatment-light adapted followed by 1 hour dark adaptation) and vehicle-treated eyes recovered 75-80% rhodopsin [dark-adapted (DA) control is 100%], whereas 3 h PBN recovered only 43% and 6 h PBN only 29%. (***P<0.0001 compared to vehicle, n=8; ##p<0.005 between 3 h and 6 h group, n=8).
An eye drop formulation was used with various absorption enhancers for topical application of PBN to mouse eyes. […] One hour dark adaptation followed by light causes 75-80% recovery of bleachable rhodopsin in the Balb/c mice (FIG. 18B, NT-LA 1 h DA). The eye drop without PBN (vehicle) had no effect on rhodopsin regeneration (FIG. 18B, vehicle).
Eye drop formulations were prepared as described in Example 7 and contained 5% or 10% of a PBN derivative. The eye drop formulations were applied to Balb/c mice by the 6 h group application scheme shown in FIG. 18A, in which the eye drops were applied at 6, 3, and 0 h before dark adaptation. The eye drops were applied to completely light-adapted mouse eyes, and the mice were then moved to the dark for 1 h to allow the regeneration of bleachable rhodopsin. One hour dark adaptation followed by light causes […] recovery of bleachable rhodopsin in untreated mice (00, No Treatment). The eye drop without any nitrones (vehicle) had no effect on rhodopsin regeneration (000, vehicle).

[2] = tested on: Rat Retina; experiment: Light-induced retinal degeneration in rats, systemic (IP) nitrone; ERG and ONL histology; settings: rat, in vivo
Procedure: Consistent with previous publications (1-2,5), a dose of 50 mg/kg PBN and S-PBN dissolved in saline was chosen for intraperitoneal injection in the rats in the treatment group. An equal volume of saline was injected into control rats.
A light-stress paradigm of 2,700 lux for 6 hours was used to test the effect of PBN at different time points before (0.5 hour, 3 hours, 6 hours, 12 hours, 16 hours, and 24 hours) or after (0.5 hour and 3 hours) light exposure. The effect of S-PBN was tested using the same dose and protocol of PBN at 0.5 hours before light exposure.
Electroretinography—After light exposure, rats were returned to their dim cyclic light (5-10 lux) environment for 7 days before ERG recordings were performed. Flash ERGs were recorded with the Diagnosys Espion E2 ERG System (Diagnosys, LLC, Lowell, Mass.). Rats were maintained in total darkness overnight and prepared for ERG recording under dim red light. They were anesthetized with ketamine (120 mg/kg body weight) and xylazine (6 mg/kg body weight) intramuscularly (IM). One drop of 10% (v/v) phenylephrine was applied to the cornea to dilate the pupil, and one drop of 0.5% (v/v) proparacaine HCl was applied for local anesthesia. Rats were kept on a heating pad at 37° C. during recordings. A gold electrode was placed on the cornea, a reference electrode was positioned in the mouth, and a ground electrode was placed on the foot; rats were then placed inside a Ganzfeld illuminating sphere. Responses were differentially amplified, averaged, and stored. For the assessment of rod photoreceptor function (scotopic ERG), five strobe flash stimuli were presented at flash intensities at −2.3, −1.3, 0.7, and 2.7 log cd·s/m^2. The amplitude of the a-wave was measured from the pre-stimulus baseline to the a-wave trough. The amplitude of the b-wave was measured from the trough of the a-wave to the peak of the b-wave. For the evaluation of cone function (photopic ERG), a strobe flash stimulus (3.3 log cd·s/m^2) was presented to dilated, light-adapted (5 minutes at 1.7 log cd·s/m^2) rats. The amplitude of the cone b-wave was measured from the trough of the a-wave to the peak of the b-wave.
Histology—After ERG recordings, rats were killed by carbon dioxide asphyxiation for light microscopic evaluation of retinal structure. Immediately after death, eyes were excised, placed in fixative (4% (w/v) paraformaldehyde, 2% (v/v) trichloroacetic acid, 20% (v/v) isopropyl alcohol, 2% (v/v) zinc chloride, and 72% (v/v) distilled water), and embedded in paraffin. Sections of 5 μm were cut along the vertical meridian through the optic nerve and stained with hematoxylin and eosin (H&E).
The PBN derivatives were injected intraperitoneally (IP) into albino SD rats at 50 mg/kg body weight at 0.5 hours before the start of light-damage exposure at 2,700 lux for 6 hours. After the exposure, the rats were moved to their dim cyclic room to recover for a week. Retinal damage/protection was assessed by functional analysis by ERG and structural analysis of histological sections. Dark adapted (12 hour) and Light adapted (for 2 hour) retinas were utilized as controls.

SMILES: CC(C)(C)/[N+]([O-])=C/c1ccccc1 [Compound 1, α-phenyl-N-tert-butyl nitrone]
- rhodopsin recovered in 1 h in the dark ([1]; 3 h group (2 applications)): 43%
- rhodopsin recovered in 1 h in the dark ([1]; 6 h group (3 applications)): 29%
- % of Rhodopsin recovery ([1]; 10% in eye drop at 6, 3 and 0 h before dark adaptation, LA + 1 h DA, DA control = 100): 48.67%
- inhibition of rhodopsin regeneration as eye drop ([1]; eye drop formulation, summary of Table 7): inhibited rhodopsin regeneration significantly
- regeneration of bleachable rhodopsin ([1]; one drop (~50 μl) containing 10% PBN, 1 h dark): significantly inhibited
- % Protection (ONL, Inferior retina) [2]: 85.0%
- % Protection (ONL, Superior retina) [2]: 87.1%
- retention of photoreceptor cells [2]: approximately 90%
